Experimental data from publication PMC8851638 (ACS Omega, 2022).
Converted amounts (≈) assume the structure as drawn. “And” between values parts separate entries of the source, which are not always exact repeats. Identical values can stand only once.

Tests used:
[1] = test system: RBCs; assay: Hemolytic assay; type: cell-based; conditions: human RBCs; compounds 1.0 mg/mL; Triton X-100 0.1% v/v; 37 °C, 35 min
[2] = test system: S. epidermidis (MDR00223); assay: MIC and MBC by broth microdilution; type: cell-based, Staphylococcus epidermidis; conditions: Staphylococcus epidermidis, read-out: MIC (mean ± SEM), S. epidermidis; broth microdilution
[3] = test system: B. subtilis (MDR00423); assay: MIC and MBC by broth microdilution; type: cell-based; conditions: Bacillus subtilis, read-out: MIC (mean ± SEM), B. subtilis; broth microdilution
[4] = test system: S. aureus biofilm; assay: Staphylococcus biofilm mass reduction; type: cell-based; conditions: at their MIC
[5] = test system: S. epidermidis biofilm; assay: Staphylococcus biofilm mass reduction; type: cell-based; conditions: at their MIC
[6] = test system: E. coli (MDR00501); assay: MIC and MBC by broth microdilution; type: cell-based; conditions: Escherichia coli, read-out: MIC (mean ± SEM), E. coli; broth microdilution
[7] = test system: S. aureus (MDR00231); assay: MIC and MBC by broth microdilution; type: cell-based, Staphylococcus aureus; conditions: Staphylococcus aureus, read-out: MIC (mean ± SEM), S. aureus; broth microdilution
[8] = test system: S. epidermidis (MDR00223); assay: Agar well-diffusion antimicrobial sensitivity assay; type: cell-based, Staphylococcus epidermidis; conditions: Staphylococcus epidermidis, read-out: Inhibition Zone (IZ)
[9] = test system: C. albicans100 (MDR00100); assay: as above; type: cell-based, Candida albicans; conditions: Candida albicans, read-out: Inhibition Zone (IZ)
[10] = test system: C. albicans200 (MDR00200); assay: as above; type: cell-based, Candida albicans; conditions: Candida albicans, read-out: Inhibition Zone (IZ)
[11] = test system: S. aureus (MDR00231); assay: as above; type: cell-based, Staphylococcus aureus; conditions: Staphylococcus aureus, read-out: Inhibition Zone (IZ)
[12] = test system: E. coli (MDR00501); assay: as above; type: cell-based; conditions: Escherichia coli, read-out: Inhibition Zone (IZ)

O=C(O)c1cn(C2CC2)c2cc(N3CCNCC3)c(F)cc2c1=O [CIP, Ciprofloxacin, reference compound]
%lysis of RBCs [1]: 16.2% and 16.2 ± 0.5% | MIC [2]: 0.47 ± 0.2 µg/mL (≈ 1.42 µM) | MIC [3]: 0.48 ± 0.3 µg/mL (≈ 1.45 µM) | reduction of biofilm formation [4]: 43.2% | reduction of biofilm formation [5]: 38% | MIC [6]: 0.46 ± 0.4 µg/mL (≈ 1.39 µM) | MIC [7]: 0.48 ± 0.1 µg/mL (≈ 1.45 µM)

Cc1ccc(-c2nn(-c3ccccc3)cc2C=c2sc(=CC#N)[nH]c2=O)cc1 [Compound 3b, 2-(4-Oxo-5-((1-phenyl-3-(p-tolyl)-1H-pyrazol-4-yl)methylene)thiazolidin-2-ylidene)acetonitrile]
zone of inhibition at 100000 µg/mL [8]: 17 ± 0.21 mm | zone of inhibition at 100000 µg/mL [9]: 13 ± 0.22 mm | zone of inhibition at 100000 µg/mL [10]: 15 ± 0.8 mm | zone of inhibition at 100000 µg/mL [11]: 15 ± 0.63 mm | zone of inhibition at 100000 µg/mL [12]: 16 ± 0.34 mm

CCOC(=O)C=c1[nH]c(=O)c(=Cc2cn(-c3ccccc3)nc2-c2ccccc2)s1 [Compound 3c, Ethyl 2-(5-((1,3-Diphenyl-1H-pyrazol-4-yl)methylene)-4-oxothiazolidin-2-ylidene)acetate]
zone of inhibition at 100000 µg/mL [8]: 15 ± 0.7 mm | zone of inhibition at 100000 µg/mL [9]: 15 ± 0.45 mm | zone of inhibition at 100000 µg/mL [10]: 14 ± 0.3 mm | zone of inhibition at 100000 µg/mL [11]: 13 ± 0.46 mm | zone of inhibition at 100000 µg/mL [12]: 18 ± 0.33 mm

CCOC(=O)C=c1[nH]c(=O)c(=Cc2cn(-c3ccccc3)nc2-c2ccc(C)cc2)s1 [Compound 3d, Ethyl-2-(4-oxo-5-((1-phenyl-3-(p-tolyl)-1H-pyrazol-4-yl)methylene)thiazolidin-2-ylidene)-acetate]
zone of inhibition at 100000 µg/mL [8]: 16 ± 0.1 mm | zone of inhibition at 100000 µg/mL [9]: 13 ± 0.6 mm | zone of inhibition at 100000 µg/mL [10]: 16 ± 0.22 mm | zone of inhibition at 100000 µg/mL [11]: 15 ± 0.78 mm | zone of inhibition at 100000 µg/mL [12]: 15 ± 0.67 mm

Cc1ccc(-c2nn(-c3ccccc3)cc2C=C(C#N)C2=NC(=O)CS2)cc1 [Compound 4b, 2-(4-Oxo-4,5-dihydrothiazol-2-yl)-3-(1-phenyl-3-(p-tolyl)-1H-pyrazol-4-yl)acrylonitrile]
zone of inhibition at 100000 µg/mL [8]: 19 ± 0.31 mm | zone of inhibition at 100000 µg/mL [9]: 22 ± 0.1 mm | zone of inhibition at 100000 µg/mL [10]: 23 ± 0.22 mm | zone of inhibition at 100000 µg/mL [11]: 20 ± 0.2 mm | zone of inhibition at 100000 µg/mL [12]: 22 ± 0.6 mm

N#CC(=Cc1ccc(Cl)cc1)C1=NC(=O)C(=Cc2cn(-c3ccccc3)nc2-c2ccccc2)S1 [Compound 5b, 3-(4-Chlorophenyl)-2-(5-((1,3-diphenyl-1H-pyrazol-4-yl)methylene)-4-oxo-4,5-dihydrothiazol-2-yl)acrylonitrile]
zone of inhibition at 100000 µg/mL [8]: 21 ± 0.1 mm | zone of inhibition at 100000 µg/mL [9]: 23 ± 0.26 mm | zone of inhibition at 100000 µg/mL [10]: 25 ± 0.77 mm | zone of inhibition at 100000 µg/mL [11]: 24 ± 0.2 mm | zone of inhibition at 100000 µg/mL [12]: 22 ± 0.56 mm

N#CC(=Cc1ccc([N+](=O)[O-])cc1)C1=NC(=O)C(=Cc2cn(-c3ccccc3)nc2-c2ccccc2)S1 [Compound 5c, 2-(5-((1,3-Diphenyl-1H-pyrazol-4-yl)methylene)-4-oxo-4,5-dihydrothiazol-2-yl)-3-(4-nitrophenyl)acrylonitrile]
zone of inhibition at 100000 µg/mL [8]: 24 ± 0.28 mm | zone of inhibition at 100000 µg/mL [9]: 21 ± 0.52 mm | zone of inhibition at 100000 µg/mL [10]: 24 ± 0.13 mm | zone of inhibition at 100000 µg/mL [11]: 22 ± 0.66 mm | zone of inhibition at 100000 µg/mL [12]: 21 ± 0.45 mm

CCOC(=O)c1c(N)csc1-c1cn(-c2ccccc2)nc1-c1ccccc1 [Compound 7a, Ethyl 4-Amino-2-(1,3-diphenyl-1H-pyrazol-4-yl)thiophene-3-carboxylate]
zone of inhibition at 100000 µg/mL [8]: 21 ± 0.12 mm | zone of inhibition at 100000 µg/mL [9]: 21 ± 0.32 mm | zone of inhibition at 100000 µg/mL [10]: 25 ± 0.33 mm | zone of inhibition at 100000 µg/mL [11]: 24 ± 0.4 mm | zone of inhibition at 100000 µg/mL [12]: 22 ± 0.41 mm

Cc1c(NN=C2SC(CC#N)=NC2=O)c(=O)n(-c2ccccc2)n1C [Compound 14, 2-(5-(2-(1,5-Dimethyl-3-oxo-2-phenyl-2,3-dihydro-1H-pyrazol-4-yl)hydrazono)-4-oxo-4,5-dihydrothiazol-2-yl)acetonitrile]
zone of inhibition at 100000 µg/mL [8]: 19 ± 0.23 mm | zone of inhibition at 100000 µg/mL [9]: 18 ± 0.66 mm | zone of inhibition at 100000 µg/mL [10]: 20 ± 0.88 mm | zone of inhibition at 100000 µg/mL [11]: 16 ± 0.21 mm | zone of inhibition at 100000 µg/mL [12]: 17 ± 0.35 mm

Cc1c(NN=C2SC(C(C#N)=Cc3ccccc3)=NC2=O)c(=O)n(-c2ccccc2)n1C [Compound 15a, 2-(5-(2-(1,5-Dimethyl-3-oxo-2-phenyl-2,3-dihydro-1H-pyrazol-4-yl)hydrazono)-4-oxo-4,5-dihydrothiazol-2-yl)-3-phenylacrylonitrile]
zone of inhibition at 100000 µg/mL [8]: 18 ± 0.56 mm | zone of inhibition at 100000 µg/mL [9]: 16 ± 0.44 mm | zone of inhibition at 100000 µg/mL [10]: 20 ± 0.58 mm | zone of inhibition at 100000 µg/mL [11]: 16 ± 0.59 mm | zone of inhibition at 100000 µg/mL [12]: 15 ± 0.77 mm

Cc1c(NN=C2SC(C(C#N)=Cc3ccc(Cl)cc3)=NC2=O)c(=O)n(-c2ccccc2)n1C [Compound 15b, 3-(4-Chlorophenyl)-2-(5-(2-(1,5-dimethyl-3-oxo-2-phenyl-2,3-dihydro-1H-pyrazol-4-yl)hydrazono)-4-oxo-4,5-dihydrothiazol-2-yl)acrylonitrile]
zone of inhibition at 100000 µg/mL [8]: 16 ± 0.25 mm | zone of inhibition at 100000 µg/mL [9]: 16 ± 0.34 mm | zone of inhibition at 100000 µg/mL [10]: 18 ± 0.76 mm | zone of inhibition at 100000 µg/mL [11]: 18 ± 0.44 mm | zone of inhibition at 100000 µg/mL [12]: 16 ± 0.85 mm

Triton X-100 [reference compound]
%lysis of RBCs [1]: 95.12% and 95.12 ± 0.721%
